# Paper PMC5374206, “Anti-bacterial and Anti-biofilm Evaluation of Thiazolopyrimidinone Derivatives Targeting the Histidine Kinase YycG Protein of Staphylococcus epidermidis” (Frontiers in Microbiology, 2017)
# Read-outs that look alike come from different tables or passages of the source.
# Assays:
# ArlS' protein = biological target: T1, ArlS' protein (Staphylococcus epidermidis, UniProt Q5HPC4); experiment: Inhibition of ArlS' autophosphorylation (Kinase-Glo Luminescent Kinase Assay); format: biochemical, S. epidermidis
# T1 construct: made in house
# T1 sequence (Q5HPC4 240-456): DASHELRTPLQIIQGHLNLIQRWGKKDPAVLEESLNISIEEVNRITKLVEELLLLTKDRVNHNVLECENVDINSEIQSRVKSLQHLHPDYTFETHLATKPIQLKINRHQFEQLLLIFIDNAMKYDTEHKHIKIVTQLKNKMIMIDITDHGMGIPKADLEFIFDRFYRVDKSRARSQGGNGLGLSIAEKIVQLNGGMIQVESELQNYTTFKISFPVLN
# [1] = test system: S. epidermidis ATCC 35984; experiment: MIC and MBC tube-dilution assay; format: cell-based; settings: Staphylococcus epidermidis
# Description: (§1) The MIC assays of the derivatives of compound 5 against S. epidermidis, S. aureus, MRSA and E. coli were performed by using the methods described previously by Wiegand et al. ([2008]). In brief, two-fold serial dilutions of the derivatives were prepared in tubes containing 4 mL MHB medium, yielding final concentrations from 200 to 0.78 μM. Bacterial cultures were grown overnight and adjusted so that the bacterial suspension turbidity was equivalent to a 0.5 McFarland standard (~1 × 10^8 CFU/mL) and further diluted to 1:200 into MHB medium. The contents in the tubes were mixed thoroughly and incubated at 37°C with shaking at 220 rpm for 16–20 h. The MIC endpoint was defined as the lowest concentration at which there was no visible growth in the tubes. The MBC values were assessed by plating 100 μL samples from each negative (no visible bacterial growth) culture tube from the MIC assays onto blank MHB agar plates. After incubation at 37°C for 24 h, the bacterial colonies on the plates were counted. The MBC was the concentration at which a 99.9% reduction of the original inoculum was observed (Pridmore et al., [2011]). In this assay, all the experiments were performed three times.
# S. aureus ATCC 49230 = experiment: MIC tube-dilution assay; format: cell-based; settings: Staphylococcus aureus, ATCC49230
# Description: as §1
# [2] = test system: S. epidermidis ATCC 12228; experiment: MIC tube-dilution assay; format: cell-based; settings: Staphylococcus epidermidis, ATCC12228
# Description: as §1
# E. coli ATCC 25922 = experiment: MIC tube-dilution assay; format: cell-based, Escherichia coli; settings: E. coli ATCC29522 (head), highest concentration used 200 μM
# Description: as §1
# [3] = test system: methicillin-resistant S. aureus (MRSA) clinical isolates; experiment: MIC and MBC against clinical MRSA isolates; format: cell-based; settings: Staphylococcus aureus
# Description: S. epidermidis ATCC 12228 (biofilm negative), S. epidermidis ATCC 35984 (biofilm positive), S. aureus ATCC 49230 and Escherichia coli ATCC 25922 were used in this study. Six clinical methicillin-resistant S. aureus (MRSA) isolates were collected from the Department of Clinical Laboratory, Shanghai General Hospital, School of Medicine, Shanghai Jiaotong University, China. Staphylococcal strains were grown in tryptic soy broth (TSB; Oxoid Ltd., Basingstoke, England), and E. coli strains were grown in Luria-Bertani broth medium. Mueller-Hinton broth (MHB; Oxoid Ltd., Basingstoke, England) was used for antimicrobial susceptibility testing. Vancomycin and ampicillin were obtained from the Sigma Chemical Co. (St Louis, MO, USA).
# as §1
# [4] = test system: S. epidermidis ATCC 35984; experiment: Time-kill assay against fast-growing S. epidermidis; format: cell-based, Staphylococcus epidermidis; settings: 4 × MIC; within/after 1 h; inoculum ~1 × 10^7 CFU/mL; MHB
# Description: Suspensions of S. epidermidis (1 × 10^7 CFU/mL) were prepared and separately treated with the derivatives of compound 5 or vancomycin at concentrations of 4 × MIC in fresh MHB. Time-kill experiments were performed at 37°C with shaking at 220 rpm under aerobic conditions. Aliquots (1 mL) were removed from the culture medium at different time points (0, 1, 3, 5, 8, and 24 h), serially diluted and 100 μL of each of the dilutions plated out onto tryptic soy agar. After incubating at 37°C for 24 h, emergent bacterial colonies were counted, and the activity of the derivatives against fast-growing S. epidermidis cells was determined by plotting log10 colony counts (CFU/mL) against time. Bactericidal activity was defined as a 3-log10 decrease in CFU/mL. This assay was performed in triplicate and similar results were obtained.
# Cytotoxicity MTT assay = format: cell-based; settings: African green monkey, Vero cells, highest concentration tested 200 μM
# Description: A Cell Proliferation Kit I (MTT; Roche, Indianapolis, USA) was used to detect the cytotoxicity of the derivatives against Vero cells. Vero cells were added to 96-well microtiter plates at a concentration of 5 × 10^4 cells/well in 100 μL of culture medium. After 24 h, culture medium was replaced by 100 μL serial dilutions of the derivatives (0.78–100 μM) and the cells were incubated for 4 h in an atmosphere of 5% CO2, then 10 μL of the MTT stock solution was added to each well and the plate returned to the 37°C incubator for 4 h. Subsequent to the incubation, the purple formazan salts were dissolved in DMSO, and the absorbance of each well was measured at wavelengths of 595 nm (test) and 655 nm (reference). Cells treated with the solvent (0.1% DMSO) were used as a blank control. The concentration of the derivatives that produced a 50% cytotoxicity effect on Vero cells (CC50) was calculated using Origin v8.0 software (Origin Lab, Northampton, USA).
# [5] = Erythrocyte hemolysis assay; format: cell-based; settings: human, erythrocytes (5% suspension), 37°C
# Description: Hemolytic activities of the derivatives were measured on healthy human erythrocytes. A pure suspension of erythrocytes was obtained by washing a blood sample with sterile 0.9% NaCl saline solution. Erythrocytes were resuspended in normal saline to give a 5% solution, then treated with MIC, 4 × MIC or 200 μM of the derivatives for 1 h at 37°C in 96-well microtiter plates. After the incubation and centrifugation at 1,000 g for 10 min, supernatants were transferred to another sterile plate and the absorbance at 570 nm was measured on a spectrophotometric microplate reader. A positive control (100% hemolysis) and a negative control (0% hemolysis) were achieved by incubating with 1% Triton-X 100 and 0.1% DMSO, respectively. Each assay was performed in triplicate and repeated three times.
# [6] = 200 μM derivative, 2 μg purified protein, 4 μM ATP
structure (smiles),measurement,setting,value
"CCOC(=O)C1=C(c2ccccc2)N=c2sc(=Cc3ccc(-c4ccc(C(=O)O)cc4)o3)c(=O)n2C1c1ccc(F)cc1 (centres unmarked) [H5-35, 2-[5-(4-carboxy-phenyl)-furan-2-ylmethylene]-5-(4-fluoro-phenyl)-3-oxo-7-phenyl-2,3-dihydro-5H-thiazolo[3,2-a]pyrimidine-6-carboxylic acid ethyl ester]",Inhibition of ArlS’ phosphorylation,ArlS' protein; [6],-1.5%
same,Luminescence,ArlS' protein; [6],18075 + 285 RLU
same,inhibitory effect on the autophosphorylation of ArlS',"ArlS' protein; highest concentration 200 μM, result in words",None of them showed an inhibitory effect
same,MBC,"[1]; ATCC35984, 99.9% reduction of inoculum",12.5 µM
same,MIC,"[1]; ATCC35984, MHB, 16–20 h",3.13 µM
same,MIC,S. aureus ATCC 49230,6.25 µM
same,MIC,[2],3.13 µM
same,MIC,E. coli ATCC 25922,>200 µM
same,MIC,"E. coli ATCC 25922; Escherichia coli, ATCC 25922 / ATCC 29522",> 200 µM
same,MBC,"[3]; MRSA strain 66, ST239",200 µM
same,MIC,"[3]; MRSA strain 66, ST239, read-out: MIC",3.13 µM
same,MBC,"[3]; MRSA strain 69, ST217",50 µM
same,MIC,"[3]; MRSA strain 69, ST217, read-out: MIC",6.25 µM
same,MBC,"[3]; MRSA strain 141, ST5",200 µM
same,MIC,"[3]; MRSA strain 141, ST5, read-out: MIC",6.25 µM
same,MBC,"[3]; MRSA strain 226, ST59",100 µM
same,MIC,"[3]; MRSA strain 226, ST59, read-out: MIC",6.25 µM
same,MBC,"[3]; MRSA strain 258, ST239",200 µM
same,MIC,"[3]; MRSA strain 258, ST239, read-out: MIC",6.25 µM
same,MBC,"[3]; MRSA strain 260, ST764",200 µM
same,MIC,"[3]; MRSA strain 260, ST764, read-out: MIC",6.25 µM
same,MIC,"[3]; range over six isolates, read-out: MICs against six MRSA clinical isolates",3.13 to 6.25 µM
same,reduction in CFU/mL,[4],3 log
same,CC50 at 4 h,Cytotoxicity MTT assay,> 200 µM
same,"hemolysis at 1 h, 200 µM",[5]; at 200 μM,0.27 ± 0.1%
same,hemolysis at 1 h,[5]; at MIC (against S epidermidis ATCC 35984),0.17 ± 0.05%
